Laboratory results taken from patent US10800792B2, “Inhibitors of Bruton's tyrosine kinase and method of their use” (JANSSEN PHARMACEUTICA NV, priority 2015, dated 2020).

Biological target: unphosphorylated-BTK kinase domain (UP-BTK), GST-tagged human BTK (389-659aa) (Homo sapiens (Human), UniProt Q06187)
Assay: BTK kinase Lanthascreen binding assay
Details: Lanthascreen tracer competition, 60 minutes incubation; pIC50 = negative log of the IC50 in molar
Method in brief: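 Compound binding to the unphosphorylated kinase domain was monitored by displacement of a fluorescently labelled tracer in a Lanthascreen format. Potency is given as pIC50, the negative log of the molar IC50.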

Chain of unphosphorylated-BTK kinase domain (UP-BTK), GST-tagged human BTK (389-659aa) (Q06187 389-659): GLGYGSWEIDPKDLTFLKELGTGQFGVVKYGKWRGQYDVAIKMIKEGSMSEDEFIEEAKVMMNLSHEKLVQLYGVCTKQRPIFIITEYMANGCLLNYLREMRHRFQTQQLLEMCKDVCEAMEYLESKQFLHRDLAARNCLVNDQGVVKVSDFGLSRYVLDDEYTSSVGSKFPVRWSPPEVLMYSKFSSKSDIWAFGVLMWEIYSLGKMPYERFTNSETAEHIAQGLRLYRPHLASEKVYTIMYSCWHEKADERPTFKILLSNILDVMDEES

SMILES | BTK_I_binding pIC50
C=CC(=O)N1CCC[C@@H](NC(=O)c2sc3nccc4c3c2NC(=O)N4c2ccc(OC(C)C)c(C)c2)C1 [Example 633, (R)—N-(1-Acryloylpiperidin-3-yl)-5-(4-isopropoxy-3-methylphenyl)-4-oxo-4,5-dihydro-3H-1-thia-3,5,8-triazaacenaphthylene-2-carboxamide] | 5.8
C=CC(=O)N1CCC[C@@H](NC(=O)c2sc3nccc4c3c2NC(=O)N4c2ccnc(C(C)C)c2)C1 [Example 697, (R)—N-(1-Acryloylpiperidin-3-yl)-5-(2-isopropylpyridin-4-yl)-4-oxo-4,5-dihydro-3H-1-thia-3,5,8-triazaacenaphthylene-2-carboxamide] | 6.9
Cc1ccccc1N1C(=O)Nc2c(C(=O)N[C@@H]3CCCN(C(=O)/C(C#N)=C/C4CC4)C3)sc3nccc1c23 [Example 854, (R,E)-N-(1-(2-Cyano-3-cyclopropylacryloyl)piperidin-3-yl)-4-oxo-5-(o-tolyl)-4,5-dihydro-3H-1-thia-3,5,8-triazaacenaphthylene-2-carboxamide] | 7.5
CC(C)Cc1cccc(N2C(=O)Nc3c(C(=O)N[C@@H]4CCCNC4)sc4nccc2c34)c1 [Example 721, (R)-5-(3-Isobutylphenyl)-4-oxo-N-(piperidin-3-yl)-4,5-dihydro-3H-1-thia-3,5,8-triazaacenaphthylene-2-carboxamide] | 6.2
CCC(=O)N1CCC[C@@H](NC(=O)c2sc3nccc4c3c2NC(=O)N4c2ccc(Oc3ccccn3)cc2C)C1 [Example 799, (R)-5-(2-Methyl-4-(pyridin-2-yloxy)phenyl)-4-oxo-N-(1-propionylpiperidin-3-yl)-4,5-dihydro-3H-1-thia-3,5,8-triazaacenaphthylene-2-carboxamide] | 6.2
CN[C@@H](C)C(=O)N1CCC[C@@H](NC(=O)c2sc3nccc4c3c2NC(=O)N4c2ccc(Oc3ccccc3)cc2C)C1 [Example 853, 5-(2-Methyl-4-phenoxyphenyl)-N—((R)-1-((S)-2-(methylamino)propanol)piperidin-3-yl)-4-oxo-4,5-dihydro-3H-1-thia-3,5,8-triazaacenaphthylene-2-carboxamide] | 7.5

Same assay, conditions: Lanthascreen tracer competition, 60 minutes incubation; pIC50 = negative log of the IC50 in molar; read-out: BTK_I_binding pIC50 (converted)

SMILES | IC50
C=CC(=O)N1CCC[C@@H](NC(=O)c2sc3nccc4c3c2NC(=O)N4c2cnc(CC(C)C)cc2C)C1 (mixture of isomers) [Example 671, (R)—N-(1-Acryloylpiperidin-3-yl)-5-(6-isobutyl-4-methylpyridin-3-yl)-4-oxo-4,5-dihydro-3H-1-thia-3,5,8-triazaacenaphthylene-2-carboxamide] | 25.1 nM
O=C(N[C@@H]1CCNC[C@@H]1O)c1sc2nccc3c2c1NC(=O)N3c1ccc(Oc2ccccc2)cc1 (relative stereo) [Example 659, N-(cis-3-Hydroxypiperidin-4-yl)-4-oxo-5-(4-phenoxyphenyl)-4,5-dihydro-3H-1-thia-3,5,8-triazaacenaphthylene-2-carboxamide] | 251 nM
C=CC(=O)N[C@@H]1COC[C@@H]1NC(=O)c1sc2nccc3c2c1NC(=O)N3c1cnc(Oc2ccccc2)cc1C (single isomer, unassigned) [Example 752, N-((*3R,*4S)-4-Acrylamidotetrahydrofuran-3-yl)-5-(*S)-(4-methyl-6-phenoxypyridin-3-yl)-4-oxo-4,5-dihydro-3H-1-thia-3,5,8-triazaacenaphthylene-2-carboxamide] | 398 nM

Same assay, conditions: pIC50 = negative log of the IC50 in molar; 60 minutes incubation, 50 nM Tracer 236

SMILES | BTK_I_binding pIC50
CO[C@@H]1CNC[C@@H]1NC(=O)c1sc2nccc3c2c1NC(=O)N3c1ccc(Oc2ccccc2)cc1C [Example 211, N-((3S,4R)-4-Methoxypyrrolidin-3-yl)-5-(2-methyl-4-phenoxyphenyl)-4-oxo-4,5-dihydro-3H-1-thia-3,5,8-triazaacenaphthylene-2-carboxamide] | 6.7
Cc1cc(Oc2ccccc2)ccc1N1C(=O)Nc2c(C(=O)N[C@H]3CCCOC3)sc3nccc1c23 [Example 67, (S)-5-(2-Methyl-4-phenoxyphenyl)-4-oxo-N-(tetrahydro-2H-pyran-3-yl)-4,5-dihydro-3H-1-thia-3,5,8-triazaacenaphthylene-2-carboxamide] | 7.5
Cc1cc(Oc2ccccc2)ccc1N1C(=O)Nc2c(C(=O)N[C@@H]3CCCN(C(=O)CO)C3)sc3nccc1c23 [Example 124, (R)—N-(1-(2-Hydroxyacetyl)piperidin-3-yl)-5-(2-methyl-4-phenoxyphenyl)-4-oxo-4,5-dihydro-3H-1-thia-3,5,8-triazaacenaphthylene-2-carboxamide] | 7.4
Cc1cc(Oc2ccccc2)ccc1N1C(=O)Nc2c(C(=O)N[C@@H]3CCCN(C(=O)/C(F)=C/C4CC4)C3)sc3nccc1c23 [Example 228, (R,Z)—N-(1-(3-Cyclopropyl-2-fluoroacryloyl)piperidin-3-yl)-5-(2-methyl-4-phenoxyphenyl)-4-oxo-4,5-dihydro-3H-1-thia-3,5,8-triazaacenaphthylene-2-carboxamide] | 6.6
Cc1cc(Oc2ccccc2)ccc1N1C(=O)Nc2c(C(=O)NC3CCCN(C#N)CC3)sc3nccc1c23 (centres unmarked) [Example 189, N-(1-Cyanoazepan-4-yl)-5-(2-methyl-4-phenoxyphenyl)-4-oxo-4,5-dihydro-3H-1-thia-3,5,8-triazaacenaphthylene-2-carboxamide] | 6.6
Cc1cc(Oc2ccccc2)ccc1N1C(=O)Nc2c(C(=O)N[C@@H]3CCCN(C(=O)[C@@H]4CCOC4)C3)sc3nccc1c23 [Example 198, 5-(2-Methyl-4-phenoxyphenyl)-4-oxo-N—((R)-1-((R)-tetrahydrofuran-3-carbonyl)piperidin-3-yl)-4,5-dihydro-3H-1-thia-3,5,8-triazaacenaphthylene-2-carboxamide] | 7.0

Same assay, conditions: pIC50 = negative log of the IC50 in molar; 60 minutes incubation, 50 nM Tracer 236; read-out: BTK_I_binding pIC50 (converted)

SMILES | IC50
C=CC(=O)N1CCC[C@@H](NC(=O)c2sc3nccc4c3c2NC(=O)N4c2ccc(OC3CCCCC3)cc2C)C1 [Example 32, (R)—N-(1-Acryloylpiperidin-3-yl)-5-(4-(cyclohexyloxy)-2-methylphenyl)-4-oxo-4,5-dihydro-3H-1-thia-3,5,8-triazaacenaphthylene-2-carboxamide] | 50.1 nM

Same assay, conditions: unphosphorylated-BTK kinase domain, 50 nM Tracer 236, 60 minutes; pIC50 = negative log of the IC50 in molar

SMILES | BTK_I_binding pIC50
O=C(N[C@@H]1CCCNC1)c1sc2nccc3c2c1NC(=O)N3c1ccc2ccccc2c1 [Example 429, (R)-5-(Naphthalen-2-yl)-4-oxo-N-(piperidin-3-yl)-4,5-dihydro-3H-1-thia-3,5,8-triazaacenaphthylene-2-carboxamide] | <5
CC(=O)N1CCC[C@@H](NC(=O)c2sc3nccc4c3c2NC(=O)N4c2ccc(Oc3ccccc3)c(Cl)c2)C1 [Example 582, (R)—N-(1-Acetylpiperidin-3-yl)-5-(3-chloro-4-phenoxyphenyl)-4-oxo-4,5-dihydro-3H-1-thia-3,5,8-triazaacenaphthylene-2-carboxamide] | 6.7
C=CC(=O)N1CC[C@@H](NC(=O)c2sc3nccc4c3c2NC(=O)N4c2ccc(Oc3ccccc3)nn2)C1 [Example 311, (R)—N-(1-Acryloylpyrrolidin-3-yl)-4-oxo-5-(6-phenoxypyridazin-3-yl)-4,5-dihydro-3H-1-thia-3,5,8-triazaacenaphthylene-2-carboxamide] | 5.9
Cc1cc(Oc2ccccc2)ccc1N1C(=O)Nc2c(C(=O)N[C@@H]3CCCN(C(=O)[C@H](C)CO)C3)sc3nccc1c23 [Example 564, N—((R)-1-((R)-3-Hydroxy-2-methylpropanoyl)piperidin-3-yl)-5-(2-methyl-4-phenoxyphenyl)-4-oxo-4,5-dihydro-3H-1-thia-3,5,8-triazaacenaphthylene-2-carboxamide] | 7.2
C=CC(=O)N1CCC[C@@H](NC(=O)c2sc3nccc4c3c2NC(=O)N4c2ccc(OC(F)(F)F)cc2C)C1 [Example 414, (R)—N-(1-Acryloylpiperidin-3-yl)-5-(2-methyl-4-(trifluoromethoxy)phenyl)-4-oxo-4,5-dihydro-3H-1-thia-3,5,8-triazaacenaphthylene-2-carboxamide] | 7.4
C=CC(=O)N1CCC[C@@H](NC(=O)c2sc3nccc4c3c2NC(=O)N4c2ccc(Oc3ccccc3)nc2)C1 [Example 506, (R)—N-(1-Acryloylpiperidin-3-yl)-4-oxo-5-(6-phenoxypyridin-3-yl)-4,5-dihydro-3H-1-thia-3,5,8-triazaacenaphthylene-2-carboxamide] | 7.9
C=CC(=O)N1CCC[C@@H](NCc2sc3nccc4c3c2NC(=O)N4c2ccc(Oc3ccccc3)cc2C)C1 [Example 390, (R)-2-(((1-Acryloylpiperidin-3-yl)amino)methyl)-5-(2-methyl-4-phenoxyphenyl)-3H-1-thia-3,5,8-triazaacenaphthylen-4(5H)-one] | 6.9

Same assay, conditions: unphosphorylated-BTK kinase domain, 60 minutes incubation, 50 nM Tracer 236; pIC50 = negative log of the IC50 in molar

SMILES | BTK_I_binding pIC50
CNCC(=O)N1CCC[C@@H](NC(=O)c2sc3nccc4c3c2NC(=O)N4c2ccc(OC(C)C)cc2C)C1 [Example 923, (R)-5-(4-Isopropoxy-2-methylphenyl)-N-(1-(2-(methylamino)acetyl)piperidin-3-yl)-4-oxo-4,5-dihydro-3H-1-thia-3,5,8-triazaacenaphthylene-2-carboxamide] | 6.3
CCC(=O)N1CCCC(NC(=O)c2sc3nccc4c3c2NC(=O)N4c2ccc(Oc3ccccc3)cc2C)C1 (centres unmarked) [Example 903, 5-(2-Methyl-4-phenoxyphenyl)-4-oxo-N-(1-propionylpiperidin-3-yl)-4,5-dihydro-3H-1-thia-3,5,8-triazaacenaphthylene-2-carboxamide] | 6.8
C=CC(=O)N1CC[C@@H](NC(=O)c2sc3nccc4c3c2NC(=O)N4c2ccc(Oc3cccnn3)nc2C)C1 [Example 974, (R)—N-(1-Acryloylpyrrolidin-3-yl)-5-(2-methyl-6-(pyridazin-3-yloxy)pyridin-3-yl)-4-oxo-4,5-dihydro-3H-1-thia-3,5,8-triazaacenaphthylene-2-carboxamide] | 5.6
